Experimental data from US7745457B2, “Meridamycin analogues for the treatment of neurodegenerative disorders” (Wyeth LLC, priority 2006, dated 2010).

System: cortical neuron cultures
Assay: Neurite outgrowth in dissociated cortical neuron cultures
Assay type: cell-based
Conditions: Cortical neurone; embryonic day 15 rat cortical neurons, 72 hours treatment, TUJ-1 staining, Cellomics ArrayScan ENO algorithm; read-out: EC50 in cortical neuron assays (neurite outgrowth)
Description: Dissociated cortical neuron cultures were prepared as previously described (Pong et al., 2001). Briefly, embryonic day 15 rat fetuses were collected and dissected in ice-cold PBS. Dissected cortices were pooled together and transferred to an enzymatic dissociation medium containing papain. After 30 minutes, the tissue was mechanically triturated with a fire-polished glass Pasteur pipette. Single-cell suspensions in complete media were seeded on poly-L-ornithine and laminin coated 96-well plates. 24 hours later, cultures were treated with various concentrations of compound for 72 hours. The cultures were then fixed and stained with an anti-tubulin primary antibody (TUJ-1) and a fluorescent-tagged secondary antibody. Neurite outgrowth was determined by using the Enhanced Neurite Outgrowth (ENO) algorithm with the Cellomics ArrayScan and expressed as average neurite length or total neurite length per cell.

`CC/C1=C\CC(/C(C)=C/C(C)C(C)OC(C)=O)OC(=O)C2CCCCN2C(=O)C(=O)C2(O)OC(CCC2C)CC(O)C(C)C(OC(C)=O)CC(OC(C)=O)CC(OC(C)=O)/C(C)=C/C(C)CC(C)C1OC(C)=O` (stereo not drawn) [Example 5] was tested, and the EC50 was under 1 µM.
Work on `CC/C1=C\CC(/C(C)=C/C(C)C(C)=O)OC(=O)C2CCCCN2C(=O)C(=O)C2(O)OC(CCC2C)CC2OC(C)(C)OC(CC3CC(OC(C)(C)O3)/C(C)=C/C(C)CC(C)C1=O)C2C` (stereo not drawn) [Example 6] yielded an EC50 of under 1 µM.
Molecule `CC/C1=C\CC(/C(C)=C/C(C)C(C)O)OC(=O)C2CCCCN2C(=O)C(=O)C2(O)OC(CCC2C)CC(O)C(C)C(O)CC2CC(OC(C)(C)O2)/C(C)=C/C(C)CC(C)C1O` (stereo not drawn) [Example 4] has an EC50 of under 1 µM.
`CC/C1=C\CC(/C(C)=C/C(C)C(C)OC(C)=O)OC(=O)C2CCCCN2C(=O)C(=O)C2(O)OC(CCC2C)CC(O)C(C)C(O)CC(OC(C)=O)CC(OC(C)=O)/C(C)=C/C(C)CC(C)C1OC(C)=O` (stereo not drawn) [Example 3] gave an EC50 of under 1 µM.
`CC/C1=C\CC(/C(C)=C/C(C)C(C)O)OC(=O)C2CCCCN2C(=O)C(=O)C2(O)OC(CCC2C)CC2OC(C)(C)OC(CC3CC(OC(C)(C)O3)/C(C)=C/C(C)CC(C)C1O)C2C` (stereo not drawn) [Example 1] gave an EC50 of under 1 µM.
`CC/C1=C\CC(/C(C)=C/C(C)C(C)OC(C)=O)OC(=O)C2CCCCN2C(=O)C(=O)C2(O)OC(CCC2C)CC(OC(C)=O)C(C)C(OC(C)=O)CC(OC(C)=O)CC(OC(C)=O)/C(C)=C/C(C)CC(C)C1OC(C)=O` (stereo not drawn) [Example 2] was tested, and the EC50 was under 1 µM.
